From patent publication US5686424A, “2-oxoethyl derivatives as immunosuppressants” (Miles Inc., priority 1995, dated 1997)
Read-outs that look alike come from different tables or passages of the source.

Key:
FKBP = FKBP (Homo sapiens, UniProt P62942); assay: PPIase Inhibition Assay; type: biochemical
Protocol: 1) Inhibition of PPIase Activity
This assay follows in principle the procedure described in Kofron et al., 1991, Biochemistry 30:6127.
The three main reagents used are PPIase, a substrate for PPIase, and a selected inhibitor compound of the present invention. The basic principle behind this assay is the conversion of the cis isomer of the substrate to the trans form, which conversion is catalyzed by PPIase. Essentially, inhibition of this PPIase activity is measured for the selected compounds. A peptide chymotrypsin substrate containing a proline in the P2 position is only cleaved by chymotrypsin when the Phe-Pro bond is in the trans isomeric configuration. In the presence of excess chymotrypsin, all of the trans peptide isomers are cleaved within approximately five seconds, leaving only cis forms.
The cis peptide will spontaneously convert to the trans isomer at a slow rate. The cis to trans conversion is catalyzed by isomerases at a much faster rate than this spontaneous conversion. Proteins with PPIase activity are examples of such isomerases. After isomerization, the peptide is cleaved by chymotrypsin releasing p-nitroaniline which can be monitored at 390 nm. The rate of release is then calculated using a first order rate plus offset equation utilizing the ENZFITTER program (Leatherbarrow, BIOSOFT, Cambridge, United Kingdom).
In a plastic cuvette are added 950 ul of ice cold assay buffer (25 mM HEPES, pH 7.8, 100 mM NaCl), 10 uL of FKBP (2.5 uM in 10 mM Tris-Cl pH 7.5, 100 mM NaCl, 1 mM dithiothreitol), 25 ul of chymotrypsin (50 mg/ml in 1 mM HCl) and 10 ul of the test compound at various concentrations in dimethyl sulphoxide. The reaction is initiated by addition of 5 ul of substrate (Succinyl-Ala-Phe-Pro-Phe-para-nitroanilide, 5 mg/ml in 235 mM LiCl in trifluoroethanol).
The absorbance at 390 nm versus time is monitored for 90 sec using a Beckman DU70 spectrophotometer. The absorbance versus time data files are transferred to an IBM XT computer and the rate constants determined using the commercial enzfitter program. For each set of data, the uncatalyzed rate of conversion is measured and the uninhibited enzymatic rate determined. The data are expressed as % Activity remaining and are calculated as follows:
% Activity Remaining=(kobs -kuncat)/(kuninh
where kobs is the rate in the presence of a selected test compound, kuncat is the rate in the absence of enzyme, and kuninh is the rate in the presence of enzyme
Data was plotted as the velocity in the absence of the inhibitor (V-) divided by the velocity in the presence of inhibitor (V+) versus the inhibitor concentration. The IC50 can be determined following linear regression as the inhibitor concentration where

human T-cells = assay: Suppression of Human T-Cell Proliferation Assay (PHA-stimulated, [3H]-thymidine incorporation); type: cell-based; conditions: read-out: IC50
Source text: 2) Human T Lymphocyte Inhibition
Inhibition of mitogen-induced T-cell proliferation can be used to profile immunosuppressive activity of test compounds. In the description of the assay which follows, mitogen-induced T-cell activation was used to test the inhibitory potencies of select compounds of the present invention.
In an assay similar to that described by Bradley in Mishell et al. (Eds.), 1980, Selected Methods in Cellular Immunology, pp 156-161, W. H. Freeman & Co., San Fransisco, Calif., T-cells were stimulated by incubation with phytohemagglutinin (PHA) which binds to cell surface molecules, including the T-cell receptor. This stimulation results in proliferation which can be measured by incorporation of [^3 H]-thymidine into cellular DNA.
The immunosuppressive properties of the compounds of the present invention can be determined by adding various concentrations of the compounds to these cultures and measuring the effect on T-cell proliferation.
Suppression of Human T-Cell Proliferation Assay
Fresh LeukoPaks were obtained from the New York Blood Center, New York, N.Y. The cells, including erythrocytes and leukocytes, were diluted with Hank's Balanced Salt Solution (HBSS) (GIBCO, Grand Island, N.Y.) and layered over Lymphoprep (Nycomed Pharma AS, Oslo, Norway) in sterile 50 ml conical centrifuge tubes. Lymphocytes were isolated at the Hank's/Nycomed interface after centrifugation at 2000×g, 4° C. for 15 min. The lymphocytes were washed with Minimal Essential Medium (GIBCO) containing 2% fetal bovine serum (FBS) (Sigma Chemical Co., St. Louis, Mo.), 1% HEPES buffer (GIBCO) and 1% Penicillin-Stretomycin solution (GIBCO).
T-cells were further purified essentially by sheep erythrocyte (SRBC) rosetting as described by Morimoto et al., 1983, J. Immunol. 130:157. The isolated lymphocytes were adjusted to 2×10^7 cells/ml and 5 ml aliquots of the cell suspension were incubated for 10 minutes at room temperature with 5 ml of a 5% SRBC (Cappel, Organon Technika Corp., West Chester, Pa.) suspension. The cells were gently pelleted by centrifugation at 300 rpm for 10 minutes, followed by a 1 hour incubation at room temperature to allow rosette formation. The cells were gently resuspended,layered over Lymphoprep and centrifuged for 30 minutes at 500×g. The pellet, containing rosetted T-cells and SRBC was treated with ice cold buffered ammonium chloride (GIBCO) to lyse the erythrocytes. T-cells were washed twice with HBSS.
Purified T-cells were resuspended at 2×10^6 cells/ml in complete culture medium composed of RPMI-1640 (Whittaker Bioproducts, Walkerville, Md.) with 10% FBS (Sigma), 2 mM L-glutamine (GIBCO), 1% Penicillin-Streptomycin (GIBCO) and 15 mM HEPES (GIBCO). In 96-well plates (Becton Dickinson, Lincoln Park, N.J.), 0.1 ml aliquots of T-cell suspension were mixed with 0.05 ml of 40 μg/ml PHA-M (Sigma). The compounds of this invention were dissolved in dimethylsulfoxide at 10 mM and various dilutions in complete medium were added in duplicate wells (0.05 ml/well). The plates were incubated at 37° C. in a humidified atmosphere of 5% carbon dioxide and 95% air for 72 hours.
Proliferation was assessed by measurement of [^3 H]-thymidine incorporation. During the last 6 hours of incubation, the cells were pulse labelled with 1 μCi/well of [^3 H]-thymidine (New England Nuclear, Boston, Mass.). The cells were harvested onto glass fiber paper using a plate harvester and the radioactivity incorporated into cellular DNA corresponding to individual wells was measured by standard liquid scintillation counting methods.

NF-AT = NF-AT Inhibition Assay Directed β-Galactosidase Expression in FGL-5 cells; type: cell-based
Protocol: 3) NF-AT Assay Stimulation of T-cells leads to the appearance of several transcription factors, including one designated "NF-AT". These factors are involved in regulation of gene expression required for immunologic activation. Some of these transcription factors appear to have functions in a wide variety of cell types. By contrast, NF-AT is found primarily in T-cells and its role is restricted to early gene activation. […] Inhibition of NF-AT activity is measured using FGL-5 cells. FGL-5 is a cloned line of stably transfected Jurkat T-cells that contain two construct in which three tandem copies of the NF-AT DNA binding site direct transcription of both murine CD8 and the lacZ gene, encoding β-galactosidase ([…] et al., 1990, Genes & Development 4:1823). When these cells are stimulated with phorbol esters which activate protein kinase C and calcium ionophore to raise the intracellular calcium concentration, transcriptionally active NF-AT is produced. In T-cells, this normally leads to the expression of IL-2, T-cell growth factor. However, in FGL-5 cells NF-AT activation leads to the production of β-galactosidase which can be detected using an appropriate substrate. […] NF-AT Inhibition Assay Directed β-Galactosidase Expression This assay was performed essentially as described (Bierer et al., 1990, Proc. Natl. Acad. Sci. 87:9231). […] The assays were done with exponentially growing cells whose density was not greater than 0.5 million cells/ml. The cells were resuspended to 3 million cells/ml in medium and 0.1 ml was added to wells of a 96-well plate. The compounds of the present invention were dissolved in either ethanol or dimethylsulfoxide at 10 mM and […] of various dilutions in medium were added to cells in duplicate wells. Treatment controls consisted of duplicate wells containing 0.5 ml/well of either medium, ethanol or dimethylsulfoxide. The ethanol and dimethyl sulfoxide were at the same concentration as was used for the compounds. […] Phorbol dibutyrate (Sigma) and Ionomycin (Calbiochem) were dissolved at 50 μg/ml and 2 mM, respectively and stored at -70° C. […] For unstimulated cell controls, 0.5 ml/well of medium was added to duplicate wells. The plates were incubated overnight (16-18 hours) at 37° C. in a humidified atmosphere of 5% CO2 and air. β-galactosidase activity was measured as the fluorescence generated by the cleavage of 4-methyl umbelliferyl-β-D-galactoside (Sigma) at the β-galactoside bond. After overnight incubation, the cells were centrifuged at 500×g for 3 minutes in the 96-well plates and washed 3 times with PBS. […] The percent inhibition by each concentration of the compounds was calculated as: […]

[1] = concentration of inhibitor required for 50% inhibition of enzyme activity, FKBP, substrate Succinyl-Ala-Phe-Pro-Phe-para-nitroanilide, TABLE I
[2] = concentration inhibiting [3H]-thymidine incorporation of PHA-stimulated T-cells by 50%, 72 hours, TABLE 2
[3] = 50% inhibition of NF-AT directed β-galactosidase activity in FGL-5 cells stimulated with phorbol dibutyrate and ionomycin, TABLE 3

Chain of FKBP (P62942 whole entry): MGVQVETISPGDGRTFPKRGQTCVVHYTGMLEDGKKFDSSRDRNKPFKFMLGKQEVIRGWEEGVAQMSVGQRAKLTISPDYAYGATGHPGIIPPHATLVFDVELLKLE

IC50 (FKBP; [1]) [µM]	IC50 (NF-AT; [3]) [µM]	Compound	IC50 (FKBP) [µM]	IC50 (human T-cells) [µM]	IC50 (NF-AT) [µM]	IC50 (human T-cells; [2]) [µM]
2.2	13	CC[C@H](C)[C@H](NC(=O)[C@@H]1CCCCN1CC(=O)C12CC3CC(CC(C3)C1)C2)C(=O)NCc1ccccc1 [Example 36, L-Isoleucine, N-[1-(2-Adamantan-1-yl-2-Oxoethyl)-L-Homoproline] Benzylamide]				20
> 5	22	CCCCCC1CCC(C(=O)CN2CCC[C@H]2C(=O)N[C@H](C(=O)NCc2ccccc2)[C@@H](C)CC)CC1 (stereo partly drawn) [Example 42, L-Isoleuclne, N-[1-(2-(4-Pentylcyclohexyl)-2-Oxoethyl)-L-Prolyl] Benzylamide]				7
< 5	14	CC[C@H](C)[C@H](NC(=O)[C@@H]1CCCN1CC(=O)C1CCc2ccccc2C1)C(=O)NCc1ccccc1 (stereo partly drawn) [Example 43, L-Isoleuclne, N-[1-(2-(1,2,3,4-tetrahydro-Napththalen-2-yl)-2-Oxoethyl)-L-Prolyl] Benzylamide]				16
< 5	> 33	CC[C@H](C)[C@H](NC(=O)[C@@H]1CCCN1CC(=O)C12CC3CC(CC1C3)C2)C(=O)NCc1ccccc1 [Example 45, L-Isoleucine, N-[1-(2-Oxo-2-Tricyclo[3.3.1.0 ^3,7]Non-3-yl-Ethyl)-L-Prolyl] Benzylamide]				20
> 5		CC[C@H](C)[C@H](NC(=O)[C@@H]1CCCN1CC(=O)N1CCCC1)C(=O)NCc1ccccc1 [Example 78, L-Isoleucine, N-[1-[2-(1-Pyrrolidine)-2-Oxoethyl]-L-Prolyl] Benzylamide]				100
< 5		CC[C@H](C)[C@H](NC(=O)[C@@H]1CCCN1CC(=O)N1CCC(c2ccccc2)CC1)C(=O)NCc1ccccc1 [Example 82, L-Isoleucine, N-[1-(2-(4-Phenylpiperidyl)-2-Oxoethyl)-L-Prolyl] Benzylamide]				20
	> 15	CC[C@H](C)[C@H](NC(=O)[C@@H]1CCCCN1CC(=O)c1cc(OC)c(OC)c(OC)c1)C(=O)NCc1ccccc1 [Example 153, L-Isoleucine, N-[1-(2-(3,4,5-Trimethoxyphenyl)-2-Oxoethyl)-L-Homoprolyl] Benzylamide]				> 15
< 50		L-Isoleucine, N-[1-(2-(2-Methoxyphenyl)-2-Oxoethyl)-L-Prolyl] Benzylamide [Example 10]				< 50

More lines, now with the values behind:

Compound	IC50 (FKBP; [1]) [µM]	IC50 (NF-AT; [3]) [µM]	IC50 (FKBP) [µM]	IC50 (human T-cells) [µM]	IC50 (NF-AT) [µM]	IC50 (human T-cells; [2]) [µM]
CC[C@H](C)[C@H](NC(=O)[C@@H]1CCCN1CC(=O)C1CCC2CCCC21)C(=O)NCc1ccccc1 (relative stereo) [Example 40]			< 5	17	19	
CC[C@H](C)[C@H](NC(=O)[C@@H]1CCCN1CC(=O)c1ccco1)C(=O)NCc1ccccc1 [Example 37, L-Isoleucine, N-[1-(2-Furan-2-yl-2-Oxoethyl)-L-Prolyl] Benzylamide]			> 50	> 100	> 100	
CC[C@H](C)[C@H](NC(=O)[C@@H]1CCCN1CC(=O)CC12CC3CC(CC(C)(C3)C1)C2)C(=O)NCc1ccccc1 [Example 46, L-Isoleucine, N-[1-(2-Oxo-3-(3-Methyl-Adamantan-1-yl)-Propyl)-L-Prolyl] Benzylamide]	< 5	15				13
CC[C@H](C)[C@H](NC(=O)[C@@H]1CCCN1CC(=O)N1CCN(c2ccccc2)CC1)C(=O)NCc1ccccc1 [Example 77, L-Isoleucine, N-[1-[2-(4-Phenylpiperazine)-2-Oxoethyl]-L-Prolyl] Benzylamlde]	< 5					28
L-Isoleucine, N-[1-(2-(Carbo-tert-Butoxy)-2-Oxoethyl)-L-Proline] Benzylamide [Example 25]	0.99					63
L-Isoleuclne, N-[1-(2-(1-Methyl-Cyclohexyl)-2-Oxoethyl)-L-Prolyl] Benzylamide [Example 44]				12	24	
